Test results from US12332244B2, “Composition for diagnosing diseases associated with COX2 overexpression and screening method therefor” (KYUNGPOOK NATIONAL UNIVERSITY INDUSTRY-ACADEMIC COOPERATION …, priority 2018, dated 2025).

Assays:
wild type COX2 = target: T1, wild type COX2 (Homo sapiens, UniProt P35354); assay: Filter binding assay / enzymatic analysis of COX2, wild type; settings: [14C]N-acetyl sphingosine binding to wild-type COX2, saturation plot; FIG. 3
T1 sequence (P35354 18-604): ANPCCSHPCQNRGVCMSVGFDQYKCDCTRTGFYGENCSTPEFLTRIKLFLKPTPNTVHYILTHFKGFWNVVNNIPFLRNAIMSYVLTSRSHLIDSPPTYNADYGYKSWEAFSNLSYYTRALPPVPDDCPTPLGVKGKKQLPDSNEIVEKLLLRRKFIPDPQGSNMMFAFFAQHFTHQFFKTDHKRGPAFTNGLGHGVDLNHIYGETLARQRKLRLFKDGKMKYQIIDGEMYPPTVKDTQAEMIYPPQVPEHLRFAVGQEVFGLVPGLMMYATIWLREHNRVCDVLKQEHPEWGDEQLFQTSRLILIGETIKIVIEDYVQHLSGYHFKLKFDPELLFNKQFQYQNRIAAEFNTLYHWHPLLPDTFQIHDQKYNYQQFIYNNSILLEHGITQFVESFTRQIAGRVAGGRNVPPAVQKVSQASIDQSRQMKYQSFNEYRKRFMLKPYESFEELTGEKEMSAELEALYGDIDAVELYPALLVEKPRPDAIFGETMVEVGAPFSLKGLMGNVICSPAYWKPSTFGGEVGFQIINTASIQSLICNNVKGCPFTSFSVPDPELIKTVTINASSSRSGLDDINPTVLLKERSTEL
Method: The binding activity of wild type COX2 or mutant COX2 (N181A, T564A, S565A, S567A) and N-acetyl sphingosine (N-AS) was analyzed by filter binding assay (Nat Commun. 2018 Apr. 16; 9(1):1479).
The binding rate (Vbinding) of [^14C]N-acetyl sphingosine (American Radiolabeled Chemicals, ARC1024) to wild-type COX2 and mutant COX2 (N181A, T564A, S565A, S567A) was expressed as the concentration of N-acetyl sphingosine. […] By using the calculated Kcat and KM, Kcat/KM (catalytic efficiency), which has been widely used as a measure of enzyme performance, was calculated from wild-type COX2 and mutant-type COX2 (N181A, T564A, S565A, S567A).

[1] = Brain distribution after oral or intravenous administration to normal mice; type: in vivo, mouse; settings: for Kp: mouse, brain, FIG. 4C
Method: FIGS. 4A to 4C illustrate a result of showing a concentration remaining in the brain for each time period after oral (p.o. 10 mg/kg) or intravenous administration (i.v. 1 mg/kg) of N-acetyl sphingosine to normal mice (FIG. 4A), a result of showing a concentration remaining in the brain after 24 hours (FIG. 4B), and a pharmacokinetic test analysis result for a brain distribution (FIG. 4C) (n=3/group).
In order to apply the compounds of the present invention to the diagnosis of degenerative brain diseases, it is important to distribute the compounds well to the brain after administration. To confirm this, the N-AS was administered orally (10 mg/kg) or through tail vein (1 mg/kg), and then the brain was extracted by time to measure the concentration of N-AS, and after 24 hours, the brain was extracted to measure the concentration of the remaining N-AS.

[2] = target: T2, COX2 protein in microglia (Mus musculus, UniProt Q05769); assay: [14C] bound to COX2 immunoprecipitated from microglia after oral [14C]N-acetyl sphingosine; type: in vivo; settings: 5-month-old APP/PS1 Alzheimer's animal model compared to control (WT); 10 μCi oral; after 1 hour; FIG. 6
T2 construct: from tissue; host or cells: microglia isolated from the cerebrum of wild-type and APP/PS1 mice (C57BL/6 background)
T2 sequence (Q05769 18-604): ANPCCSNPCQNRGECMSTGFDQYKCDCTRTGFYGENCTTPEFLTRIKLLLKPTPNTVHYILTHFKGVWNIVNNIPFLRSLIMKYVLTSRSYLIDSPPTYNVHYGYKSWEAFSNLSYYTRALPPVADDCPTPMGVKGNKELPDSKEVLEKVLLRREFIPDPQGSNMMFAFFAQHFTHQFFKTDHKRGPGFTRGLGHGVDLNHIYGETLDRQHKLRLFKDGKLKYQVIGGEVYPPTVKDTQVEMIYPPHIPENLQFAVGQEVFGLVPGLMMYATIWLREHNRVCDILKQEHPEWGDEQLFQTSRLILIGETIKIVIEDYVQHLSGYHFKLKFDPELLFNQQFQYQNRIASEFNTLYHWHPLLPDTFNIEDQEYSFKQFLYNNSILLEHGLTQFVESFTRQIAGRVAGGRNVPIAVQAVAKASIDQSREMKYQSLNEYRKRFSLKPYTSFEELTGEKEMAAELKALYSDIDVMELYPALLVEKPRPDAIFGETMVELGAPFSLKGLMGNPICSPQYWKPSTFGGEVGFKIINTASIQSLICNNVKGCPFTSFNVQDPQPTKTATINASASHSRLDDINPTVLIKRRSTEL
Excerpt: Mouse experiments have been approved by the Kyungpook National University Institutional Animal Care and Use Committee (IACUC). A transgenic mouse line overexpressing APPswe (hAPP695swe) or PS1 (presenilin-1M146V) based on C57BL/6 mice (Charles River, UK) was used [Hereinafter, “APP mouse”: refers to a mouse overexpressing APPswe, “PS1 mouse”: refers to a mouse overexpressing presenilin-1M146V; GlaxoSmithKline]
After oral administration of 10 μCi of [^14C]N-acetyl sphingosine (American Radiolabeled Chemicals, ARC1024) to 5-month-old wild-type and APP/PS1 mice, microglia were isolated from the cerebra of the mice after 1 hour.
(§1) The COX2 protein of isolated microglia and neuroblastoma SH-SY5Y were isolated by immunoprecipitation, and then liquid scintillation counting was performed on [^14C].
After 1 hour, the COX2 in microglia was isolated from the control and the Alzheimer's animal model by immunoprecipitation, and the amount of COX2 labeled with [^14C] was confirmed.

[3] = target: T3, COX2 protein in neuroblastoma SH-SY5Y (Homo sapiens, UniProt P35354); assay: [14C] bound to COX2 immunoprecipitated from neuroblastoma SH-SY5Y cells treated with [14C]N-acetyl sphingosine; type: cell-based; settings: neuroblastoma SH-SY5Y compared to control; 2 μCi; after 1 hour; FIG. 8
T3 construct: endogenous in cells; host or cells: SH-SY5Y neuroblastoma cells
T3 sequence (P35354 18-604): T1 sequence (P35354 18-604)
Method: In addition, neuroblastoma SH-SY5Y was treated with 2 μCi of [^14C]N-acetyl sphingosine (American Radiolabeled Chemicals, ARC1024) for 1 hour, and then cells were collected.
as §1
In other words, [^14C]N-acetyl sphingosine ([^14C]N-AS), in which carbon of N-AS strongly binding to COX2 was substituted with an isotope, was treated to the cancer cells (2 μCi). After 1 hour, the COX2 was isolated from the control and the cancer cells, neuroblastoma SH-SY5Y by immunoprecipitation, and the amount of COX2 labeled with [^14C] was confirmed.

SMILES | Kcat (wild type COX2) [s⁻¹] | Kp ([1]; intravenous, tail vein administration 1 mg/kg) | Kp ([1]; oral administration 10 mg/kg) | concentration of N-AS in the brain ([1]; oral 10 mg/kg or tail vein 1 mg/kg, by time and after 24 hours, FIGS. 4A and 4B) | amount of [14C]-labeled COX2 in microglia [2] | amount of [14C]-labeled COX2 in cancer cells [3]
CCCCCCCCCCCCC/C=C/[C@@H](O)[C@H](CO)NC(C)=O [N-AS, N-acetyl sphingosine] | 0.008 | 2.16 | 3.18 | high | – | –
CCCCCCCCCCCCC/C=C/[C@@H](O)[C@H](CO)N[14C](C)=O [[^14C]N-AS, [^14C]N-acetyl sphingosine] | – | – | – | – | increased | increased
